Assay [1] has as its target T1, human RORγt (Homo sapiens, UniProt P51449).
T1 sequence (P51449 1-497 isoform P51449-2): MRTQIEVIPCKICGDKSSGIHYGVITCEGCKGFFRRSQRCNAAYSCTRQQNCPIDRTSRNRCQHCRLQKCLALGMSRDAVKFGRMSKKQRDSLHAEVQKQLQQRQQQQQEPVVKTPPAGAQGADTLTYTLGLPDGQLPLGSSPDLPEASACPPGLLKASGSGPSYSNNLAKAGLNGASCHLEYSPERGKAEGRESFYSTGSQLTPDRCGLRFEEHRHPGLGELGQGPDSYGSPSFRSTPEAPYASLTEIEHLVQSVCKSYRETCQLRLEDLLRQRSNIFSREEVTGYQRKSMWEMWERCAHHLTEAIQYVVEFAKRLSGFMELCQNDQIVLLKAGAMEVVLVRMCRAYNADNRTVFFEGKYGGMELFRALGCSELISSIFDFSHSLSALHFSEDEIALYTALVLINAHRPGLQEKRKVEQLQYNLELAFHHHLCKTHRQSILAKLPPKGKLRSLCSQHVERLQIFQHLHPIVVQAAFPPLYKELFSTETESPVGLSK
Put plainly: IL-17 secretion from EL4 murine lymphoma cells overexpressing human RORγt. The format is cell-based. The conditions noted are these: human RORγt-transfected EL4 cells, PMA and ionomycin stimulation; read-out: IC50, inhibition of IL-17 secretion. How it is done:
Murine EL-4 lymphoma cell line overexpressing human RORγt was used in this functional assay to assess compound ability to inhibit IL-17 cytokine secretion.
EL-4 cells are maintained in a standard culture medium RPMI supplemented with 10% fetal calf serum, 1% sodium pyruvate, 1% essential amino acids and 1% antibiotics at 37° C. in a humidified atmosphere of 5% CO02 and 95% air. Culture medium was changed every 2 days. EL4 cells were transfected with a plasmid encoding hRORγt (sequence identical to published sequence NM 001001523). […] Briefly, 1 μg of DNA/1 million cells was served to transfect EL-4 cells. Cell/DNA suspension was transferred into certified cuvette and the electroporation of RORγt plasmid was carried out using appropriate Nucleofector® program.
Cells were seeded in 96 well plates at a density of 150000 cells/I well then treated with compounds of this invention at indicated concentrations and incubated for 24 hours at 37° C. in a humidified atmosphere of 5% CO2 and 95% air. EL-4 cells were pretreated with test compounds (RORγ modulators) and stimulated with PMA (10 ng/mL) and ionomycin (1 μM final concentration) in the presence of test compound concentrations for additional 24 h at 37° C. in a humidified atmosphere of 5% CO2 and 95% air. Subsequently, supernatants were collected (after centrifugation at 300 g for 10 minutes) to determine the concentrations of IL-17 by HTRF (CisBio, France) or ELISA (R&D Systems Europe) according to the manufacturer's protocols.

Assay [2] deals with T2, RORγt ligand-binding domain (RORγt-LBD) (Homo sapiens, UniProt P51449).
T2 construct: 20 nM recombinantly expressed RORγ-LBD fused to GST
T2 sequence (P51449 269-508 limits assumed): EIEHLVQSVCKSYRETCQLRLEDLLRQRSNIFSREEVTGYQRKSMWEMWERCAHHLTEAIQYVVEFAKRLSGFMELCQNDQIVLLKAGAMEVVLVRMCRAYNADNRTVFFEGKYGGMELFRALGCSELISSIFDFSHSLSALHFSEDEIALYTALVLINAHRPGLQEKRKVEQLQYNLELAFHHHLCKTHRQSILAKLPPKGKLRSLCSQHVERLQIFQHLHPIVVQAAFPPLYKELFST
Description: Time-resolved FRET (TR-FRET) RORγt coactivator assay. The format is biochemical. The settings on record: GST-RORγ-LBD, biotinylated RIP140 peptide, 2 hours; read-out: IC50, coactivator-RORγt binding inhibition (TR-FRET). From the text:
Time-resolved FRET (TR-FRET) RORγt coactivator assay was used to identify RORγ modulator compounds with ligand-dependent coactivator displacement. The assay uses a d2-labeled anti-GST antibody, synthetic N-terminally biotinylated peptide which is derived from nuclear receptor coactivator protein RIP140, and a RORγt ligand-binding domain (RORγt-LBD) that is tagged with glutathione-S-transferase (GST). The influence of compounds on the RORγ-peptide interaction relies on the binding dependent energy transfer from a donor to an acceptor fluorophor attached to the binding partner of interest. […] For reduction of background from compound fluorescence, TR-FRET method makes use of generic fluorophore labels and time resolved detection.
The assays were done in a final volume of 20 μl in a 384 well plate in a CHAPS buffer (2 mM CHAPS; 1 mM DTT, 2 mM EDTA; 0.1% BSA), containing 20 nM recombinantly expressed RORγ-LBD fused to GST, 30 nM N-terminally biotinylated peptide, 1 nM streptavidin-terbium conjugate and 20 nM d2 labeled-anti-GST. Test compounds were diluted using 10 mM stock solution. The range of the final compound concentrations used in this test was from 0.3 nM to 30 μM (logarithmic scale). DMSO content of the samples was kept at 1%. The assay was equilibrated for 2 hours in the dark at room temperature in 384 well plates (Falcon). The signal was detected by an Ultra384 reader (TECAN). […] Compounds that promote coactivator displacement induce a concentration-dependent decrease in time-resolved fluorescent signal. Data were collected and analyzed using GraphPad Prism software (GraphPad Software V5.02, San Diego Calif. USA). IC50 in μM and Emax in % were reported for each compound.
(In general: Time-resolved FRET reads energy transfer from a long-lived donor to a nearby acceptor.)

Assay [3] has as its target T1, human RORγt. Description: RORE Luciferase/RORγt transactivation assay. Set-up: the full-length cDNA of human RORγt; V5-His (encoded by the vector); expressed in transfected cells; host or cells: COS-7 (monkey kidney). The conditions noted are these: COS-7 cells transfected with human IL-17 promoter luciferase reporter and RORγt plasmid, 20 h; read-out: IC50, RORγt activity inhibition (luciferase reporter). It counts as cell-based. As to the method: It is well known that RORγ binds to a conserved non-coding sequence (CNS) enhancer element in the IL-17 promoter.
Culture medium was changed every 2 days.
The 4.3 Kb human IL-17 promoter containing the RORγ-specific CNS enhancer element was PCR amplified from human genomic DNA and cloned into a pGL3-TKLuc2Cp reporter plasmid.
The luciferase reporter plasmid and the RORγt overexpression plasmid were transfected into COS-7 cell line using 4 μLJetPEI™/μg of DNA. Briefly, 150 ng of DNA (ration 1/2 between RORE-Tk Luc2Cp and cDNA RORγt or the empty vector for the negative control) was served to transfect adherent COS-7 cells in a […] culture flask, in complete medium (see cos-7 cell line culture).
Cells were then detached (using trypsin) and washed by centrifugation at 300 g for 10 minutes. Cell pellet was resuspended in serum free/phenol red free DMEM and seeded in 384 well plates at a density of 10000 cells/well and then incubated for 4 h at 37° C.
Compounds were dissolved in 100% DMSO to obtain 10 mM stock solutions. For each compound, test concentrations were diluted in serum free/phenol red free DMEM using the Genesis Freedom 200™ (TECAN) and added to the cells to obtain a 0.3% DMSO final concentration (in a final volume of 40 μL per well).
The luciferase activity was then measured with 40 μL/well steady-Glo Luciferase assay system (Promega, Madison, Wis.) and after incubation at room temperature for 30 minutes. The luminescence was estimated using the Ultra384 reader (TECAN). Data were collected and analyzed using GraphPad Prism software (GraphPad Software V5.02, San Diego Calif. USA). IC50 in μM and Emax in % were reported for each compound.
(Reporter assays use an easily measured gene product as a stand-in for the process of interest.)

Assay [4] has as its system patients with moderate to severe psoriasis. The conditions noted are these: cited from earlier work.

Molecules are shown by their SMILES.

Regarding `CC(=O)C1CCN(c2ccc(CC(=O)NC(c3ccc(C)o3)c3ccc(C)cc3N3CCCCC3)cc2)CC1` (centres unmarked) [Cpd.19, 2-[4-(4-acetylpiperidin-1-yl)phenyl]-N-{[4-methyl-2-(piperidin-1-yl)phenyl](5-methylfuran-2-yl)methyl}acetamide], the values for the IC50 (at human RORγt [1]; in assay [2]; at human RORγt [3]) were 100 to 1000 nM, less than 100 nM and less than 100 nM, respectively.

`Cc1ccc(C(NC(=O)Cc2ccc(N3CCC(S(C)(=O)=O)CC3)cc2)c2ccc(C)o2)c(N2CCCCC2)c1` (centres unmarked) [Cpd.18, 2-[4-(4-methanesulfonylpiperidin-1-yl)phenyl]-N-{[4-methyl-2-(piperidin-1-yl)phenyl](5-methylfuran-2-yl)methyl}acetamide]: the concentration for half-maximal inhibition (IC50) – broadly, the concentration that inhibits the measured activity by half – at human RORγt [1] was 100 to 1000 nM; in assay [2], less than 100 nM; at human RORγt [3], less than 100 nM.

For `CC(=O)N1CCN(c2ccc(CC(=O)NC(c3ccccc3)c3ccccc3N3CCCCC3)cc2)CC1` (centres unmarked) [Cpd.1, 2-[4-(4-acetylpiperazin-1-yl)phenyl]-N-{phenyl[2-(piperidin-1-yl)phenyl]methyl}acetamide], the IC50 on human RORγt [1] was 100 to 1000 nM; in assay [2], less than 100 nM; on human RORγt [3], 100 to 1000 nM.

On to `COc1ccc(C(NC(=O)Cc2cc(N3CCN(C(C)=O)CC3)ccc2C)c2ccc(C)o2)c(N2CCCCCC2)c1` (centres unmarked) [Cpd.11, 2-[5-(4-acetylpiperazin-1-yl)-2-methylphenyl]-N-{[2-(azepan-1-yl)-4-methoxyphenyl](5-methylfuran-2-yl)methyl}acetamide], for which the IC50 on human RORγt [1] is 100 to 1000 nM; in assay [2], less than 100 nM; at human RORγt [3], 100 to 1000 nM.

For the compound `CC(=O)N1CCN(c2ccc(C)c(CC(=O)NC(c3ccccc3)c3ccc(C)cc3N3CCCC3)c2)CC1` (centres unmarked) [Cpd.3, 2-[5-(4-acetylpiperazin-1-yl)-2-methylphenyl]-N-{[4-methyl-2-(pyrrolidin-1-yl)phenyl](phenyl)methyl}acetamide], the IC50 was 100 to 1000 nM at human RORγt [1], less than 100 nM in assay [2] and less than 100 nM at human RORγt [3].

For `COc1ccc(C(NC(=O)Cc2cc(N3CCN(C(C)=O)CC3)ccc2F)c2ccccc2)c(N2CCCCCC2)c1` (centres unmarked) [Cpd.17, 2-[5-(4-acetylpiperazin-1-yl)-2-fluorophenyl]-N-{[2-(azepan-1-yl)-4-methoxyphenyl](phenyl)methyl}acetamide], the IC50 on human RORγt [1] is 100 to 1000 nM; in assay [2], less than 100 nM; at human RORγt [3], 100 to 1000 nM.

Take `CC(=O)N1CCN(c2cccc(CC(=O)NC(c3ccc(C)o3)c3ccc(C)cc3N3CCCCC3)c2)CC1` (centres unmarked) [Cpd.20, 2-[3-(4-acetylpiperazin-1-yl)phenyl]-N-{[4-methyl-2-(piperidin-1-yl)phenyl](5-methylfuran-2-yl)methyl}acetamide]: the 50% inhibitory concentration (IC50) (on human RORγt [1]; in assay [2]; on human RORγt [3]) was less than 100 nM throughout.

`CCS(=O)(=O)c1ccc(CNC(=O)c2cnc3c(c2)CN(C[C@H]2CC[C@H](C(F)(F)F)CC2)[C@H]3C(C)C)nc1` [VTP-43742]: the “reduction in the Psoriasis Area Severity Index (PASI) score relative to placebo” value in assay [4] (350 mg dose group) is 24%. Further, in assay [4] (700 mg dose group), the “placebo-adjusted PASI score reduction” value is listed as 30%.

As for `COc1ccc(C(NC(=O)Cc2cc(N3CCN(C(C)=O)CC3)ccc2F)c2ccc(C)o2)c(N2CCCCCC2)c1` (centres unmarked) [Cpd.14, 2-[5-(4-acetylpiperazin-1-yl)-2-fluorophenyl]-N-{[2-(azepan-1-yl)-4-methoxyphenyl](5-methylfuran-2-yl)methyl}acetamide], the half-inhibitory concentration (IC50) at human RORγt [1] was 100 to 1000 nM; in assay [2], less than 100 nM; on human RORγt [3], 100 to 1000 nM.

Regarding `Cc1ccc(C(NC(=O)Cc2cc(N3CCN(S(C)(=O)=O)CC3)ccc2F)c2ccc(C)o2)c(N2CCCCC2)c1` (centres unmarked) [Cpd.16, 2-[2-fluoro-5-(4-methanesulfonylpiperazin-1-yl)phenyl]-N-{[4-methyl-2-(piperidin-1-yl)phenyl](5-methylfuran-2-yl)methyl}acetamide], the values for the half-maximal inhibitory concentration (IC50) (on human RORγt [1]; in assay [2]; on human RORγt [3]) were 100 to 1000 nM, less than 100 nM and 100 to 1000 nM, respectively.

On to `CC(=O)N1CCN(c2ccc(C)c(CC(=O)NC(c3ccc(C)o3)c3ccc(C)cc3N3CCCCC3)c2)CC1` (centres unmarked) [Cpd.10, 2-[5-(4-acetylpiperazin-1-yl)-2-methylphenyl]-N-{[4-methyl-2-(piperidin-1-yl)phenyl](5-methylfuran-2-yl)methyl}acetamide], for which the concentration for half-maximal inhibition (IC50) (on human RORγt [1]; in assay [2]; on human RORγt [3]) was less than 100 nM each time.

Regarding `CC(=O)N1CCN(c2ccc(F)c(CC(=O)NC(c3ccc(C)o3)c3ccc(C)cc3C)c2)CC1` (centres unmarked) [Cpd.12, 2-[5-(4-acetylpiperazin-1-yl)-2-fluorophenyl]-N-[(2,4-dimethylphenyl)(5-methylfuran-2-yl)methyl]acetamide], the IC50 at human RORγt [1] was 1000 to 10000 nM; in assay [2] it was less than 100 nM; at human RORγt [3], 100 to 1000 nM.

The values are drawn from patent publication US10987351B2, “RORgamma modulators and uses thereof” (Genfit, priority 2017, dated 2021).
